Reference: patent US20250276982A1, “KRAS INHIBITORS” (ASCENTAGE PHARMA (SUZHOU) CO., LTD., priority 2021, published 2025)

What was measured:
Type in all cases: cell-based
GP2d cells = assay: Cellular proliferation assay in GP2d cells (CellTiterGlo luminescent cell viability assay); settings: 72 hours treatment, CellTiter-Glo
Procedure: Example 32: Cellular Proliferation Assay in GP2d Cells
The inhibitory effect of test compounds on cellular proliferation was determined using CellTiterGlo® luminescent cell viability assay (Promega) following manufacturer's instruction.
GP2d cells (ECACC #95090715) were cultured in DMEM medium supplemented with 10% fetal bovine serum, 10 U/ml penicillin and 10 ug/ml streptomycin. Cells were plated in 96-well plates at a density of 2000 cells/well and allowed attach for […]. Then the cells were treated with various concentrations of test compounds for 72 hours. CellTiter-Glo® Reagent was added to wells and incubated for 10 minutes at room temperature. The plates were read on GloMax® 96 Microplate Luminometer or compatible microplate readers. The percentage of cellular viability was calculated as: […]

p-ERK in AGS cells = assay: p-ERK assay in AGS cells (fixed cells, anti-p-ERK / β-Actin antibodies, IR imaging); settings: Homo sapiens, 3 h at 37° C., p-ERK detected by antibody with β-Actin, IR fluorescence
Procedure: The expression of p-ERK was detected in this assay. At first, the AGS cells (40000 cells/well) were seeded in 96-well plate culture overnight and treated with KRAS-G12D compounds inhibitors at concentrations of 1, 0.33, 0.11, 0.03, 0.01, 0.004, 0.001, 0.0004, 0.0001 μM for 3 h at 37° C. Then, add an equal volume (100 μL) of 8% paraformaldehyde solution to fix and crosslink the cells to the microplate for 15 minutes. Add 100 μL of 1× permeabilization solution to wells for 30 min and add 100 μL of 1× blocking solution for 2 h. Wash with PBS 3 times after each reaction. At last, Incubation with primary antibody (Anti-mouse β-Actin and Anti-rabbit p-ERK) and secondary antibody (Goat anti-Mouse IgG H&L IRDye 800CW and Goat anti-Rabbit IgG H&L IRDye 680RW) for 2 h, As appropriate, image the microplate with an IR scanner or develop the HRP labeled microplate and read it with a spectrophotometer. The fluorescence signal was monitored using a microplate reader (Azure biosystems, Sapphire biomolecular imager) using excitation and emission wavelengths of 680 and 800 nm, respectively. Export data. The inhibitor dose-reponse curves were analyzed using normalized IC50 regression curve fitting with control based normalization.

[1] = test system: phosphorylation of ERK1/2 in AGS cells with KRAS-G12D mutation; assay: Detection of phosphorylation of ERK1/2 in AGS cells (AlphaLISA SureFire Ultra p-ERK 1/2 (Thr202/Tyr204) assay); settings: Homo sapiens, 3 hours, AlphaLISA p-ERK 1/2 (Thr202/Tyr204)
Procedure: Example 33: Detection of Phosphorylation of ERK1/2 in AGS Cells
The inhibitory effect of test compounds on phosphorylation of ERK1/2 were determined using the AlphaLISA® SureFire® Ultra™ p-ERK 1/2 (Thr202/Tyr204) assay following the manufacturer's instructions (ALSU-PERK-A500, PerkinElmer Inc.).
AGS cells (ATCC CRL-1739) with KRAS-G12D mutation were cultured in DMEM medium supplemented with 10% fetal bovine serum, 10 U/ml penicillin and 10 μg/ml streptomycin. Cells were plated in 96-well plates at a density of 4000 cells/well. After 16-18 hours incubation, various concentrations of compounds were added to cells with a final concentration of 0.2% DMSO. After 3 hours, the medium was removed, and the cells were lysed in 50 uL lysis buffer. 10 uL of lysate was transferred to a half area 96-well plate, 5 ul of acceptor mix was added to wells and incubated at room temperature for 1 hour, then 5 ul of donor mix was added to wells. After 1 hour incubation at room temperature, the plate was read on an Alpha Technology-compatible plate reader, using standard AlphaLISA settings. The assays were carried out in duplicates.

Structure (SMILES)	IC50 (GP2d cells) [nM]	IC50 (p-ERK in AGS cells) [nM]	IC50 [1] [nM]
Oc1cc(-c2ncc3c(N4C[C@H]5CC[C@@H](C4)N5)nc(OC[C@@]45CCCN4C[C@H](F)C5)nc3c2F)c2c3c(ccc2c1)CCC3 [Example 2, 9-(4-((1R,5S)-3,8-diazabicyclo[3.2.1]octan-3-yl)-8-fluoro-2-(((2R,7aS)-2-fluorotetrahydro-1H-pyrrolizin-7a(5H)-yl)methoxy)pyrido[4,3-d]pyrimidin-7-yl)-2,3-dihydro-1H-cyclopenta[a]naphthalen-7-ol]	130	11	78
C[C@@H](COc1nc(N2C[C@H]3CC[C@@H](C2)N3)c2cnc(-c3cc(O)cc4ccc5c(c34)CCC5)c(F)c2n1)CN1C2CCC1COC2 [Example 12, 9-(2-((2R)-3-(3-oxa-8-azabicyclo[3.2.1]octan-8-yl)-2-methylpropoxy)-4-((1R,5S)-3,8-diazabicyclo[3.2.1]octan-3-yl)-8-fluoropyrido[4,3-d]pyrimidin-7-yl)-2,3-dihydro-1H-cyclopenta[a]naphthalen-7-ol]	48.4	17	–
Oc1cc(-c2ncc3c(N4C[C@H]5CC[C@@H](C4)N5)nc(OC[C@@]45CCCN4C[C@H](F)C5)nc3c2F)c2c(c1)c(Cl)c1n2CCC1 [Example 20, 5-(4-((1R,5S)-3,8-diazabicyclo[3.2.1]octan-3-yl)-8-fluoro-2-(((2R,7aS)-2-fluorotetrahydro-1H-pyrrolizin-7a(5H)-yl)methoxy)pyrido[4,3-d]pyrimidin-7-yl)-9-chloro-2,3-dihydro-1H-pyrrolo[1,2-a]indol-7-ol]	2410	226	–
C[C@@H]1COCCN1CC1(COc2nc(N3C[C@H]4CC[C@@H](C3)N4)c3cnc(-c4cc(O)cc5ccc6c(c45)CCC6)c(F)c3n2)CC1 [Example 11, 9-(4-((1R,5S)-3,8-diazabicyclo[3.2.1]octan-3-yl)-8-fluoro-2-((1-(((R)-3-methylmorpholino)methyl)cyclopropyl)methoxy)pyrido[4,3-d]pyrimidin-7-yl)-2,3-dihydro-1H-cyclopenta[a]naphthalen-7-ol]	169	135	–
Oc1cc(-c2ncc3c(N4C[C@H]5CC[C@@H](C4)N5)nc(OCC4(CN5CCOCC5)CC4)nc3c2F)c2c3c(ccc2c1)CCC3 [Example 9, 9-(4-((1R,5S)-3,8-diazabicyclo[3.2.1]octan-3-yl)-8-fluoro-2-((1-(morpholinomethyl)cyclopropyl)methoxy)pyrido[4,3-d]pyrimidin-7-yl)-2,3-dihydro-1H-cyclopenta[a]naphthalen-7-ol]	175	31	–
Oc1cc(-c2ncc3c(N4C[C@H]5CC[C@@H](C4)N5)nc(OC[C@@]45CCCN4C[C@H](F)C5)nc3c2F)c2c(ccc3ccoc32)c1 [Example 1, 9-(4-((1R,5S)-3,8-diazabicyclo[3.2.1]octan-3-yl)-8-fluoro-2-(((2R,7aS)-2-fluorotetrahydro-1H-pyrrolizin-7a(5H)-yl)methoxy)pyrido[4,3-d]pyrimidin-7-yl)naphtho[1,2-b]furan-7-ol]	680	107	408
Oc1cc(-c2ccc3c(N4C[C@H]5CC[C@@H](C4)N5)nc(OCC4(CN5CCOCC5)CC4)nc3c2F)c2c3c(ccc2c1)CCC3 [Example 26, 9-(4-((1R,5S)-3,8-diazabicyclo[3.2.1]octan-3-yl)-8-fluoro-2-((1-(morpholinomethyl)cyclopropyl)methoxy)quinazolin-7-yl)-2,3-dihydro-1H-cyclopenta[a]naphthalen-7-ol]	195	39	–
CC1CCc2ccc3cc(O)cc(-c4ncc5c(N6C[C@H]7CC[C@@H](C6)N7)nc(OC[C@@]67CCCN6C[C@H](F)C7)nc5c4F)c3c21 (stereo partly drawn) [Example 14, 9-(4-((1R,5S)-3,8-diazabicyclo[3.2.1]octan-3-yl)-8-fluoro-2-(((2R,7aS)-2-fluorotetrahydro-1H-pyrrolizin-7a(5H)-yl)methoxy)pyrido[4,3-d]pyrimidin-7-yl)-1-methyl-2,3-dihydro-1H-cyclopenta[a]naphthalen-7-ol]	429	85	–
Oc1cc(-c2ncc3c(N4C[C@H]5CC[C@@H](C4)N5)nc(OC[C@@]45CCCN4C[C@H](F)C5)nc3c2F)c2c(ccc3ccsc32)c1 [Example 15, 9-(4-((1R,5S)-3,8-diazabicyclo[3.2.1]octan-3-yl)-8-fluoro-2-(((2R,7aS)-2-fluorotetrahydro-1H-pyrrolizin-7a(5H)-yl)methoxy)pyrido[4,3-d]pyrimidin-7-yl)naphtho[1,2-b]thiophen-7-ol]	541	159	–
O=C1CCc2ccc3cc(O)cc(-c4ncc5c(N6C[C@H]7CC[C@@H](C6)N7)nc(OC[C@@]67CCCN6C[C@H](F)C7)nc5c4F)c3c21 [Example 17, 9-(4-((1R,5S)-3,8-diazabicyclo[3.2.1]octan-3-yl)-8-fluoro-2-(((2R,7aS)-2-fluorotetrahydro-1H-pyrrolizin-7a(5H)-yl)methoxy)pyrido[4,3-d]pyrimidin-7-yl)-7-hydroxy-2,3-dihydro-1H-cyclopenta[a]naphthalen-1-one]	16000	272	–
Oc1cc(-c2ccc3c(N4C[C@H]5CC[C@@H](C4)N5)nc(OCC4(CN5C6CCC5COC6)CC4)nc3c2F)c2c3c(ccc2c1)CCC3 [Example 27, 9-(2-((1-((3-oxa-8-azabicyclo[3.2.1]octan-8-yl)methyl)cyclopropyl)methoxy)-4-((1R,5S)-3,8-diazabicyclo[3.2.1]octan-3-yl)-8-fluoroquinazolin-7-yl)-2,3-dihydro-1H-cyclopenta[a]naphthalen-7-ol]	370	131	–
Oc1cc(-c2ncc3c(N4C[C@H]5CC[C@@H](C4)N5)nc(OC[C@@]45CCCN4C[C@H](F)C5)nc3c2F)c2c3c(ccc2c1)OCC3 [Example 6, 9-(4-((1R,5S)-3,8-diazabicyclo[3.2.1]octan-3-yl)-8-fluoro-2-(((2R,7aS)-2-fluorotetrahydro-1H-pyrrolizin-7a(5H)-yl)methoxy)pyrido[4,3-d]pyrimidin-7-yl)-1,2-dihydronaphtho[2,1-b]furan-7-ol]	9290	588	–
Oc1cc(-c2ncc3c(N4C[C@H]5CC[C@@H](C4)N5)nc(OCCCN4C5CCC4COC5)nc3c2F)c2c3c(ccc2c1)CCC3 [Example 10, 9-(2-(3-(3-oxa-8-azabicyclo[3.2.1]octan-8-yl)propoxy)-4-((1R,5S)-3,8-diazabicyclo[3.2.1]octan-3-yl)-8-fluoropyrido[4,3-d]pyrimidin-7-yl)-2,3-dihydro-1H-cyclopenta[a]naphthalen-7-ol]	261	205	–
